This is an account of results in patent publication US8349835B2, “Aromatic ring fused triazine derivatives and uses thereof” (Shenyang Pharmaceutical University, priority 2008, dated 2013).

In experiment [1] the target is VEGFR-2 (Homo sapiens, UniProt P35968). The experiment in a line: VEGFR-2 inhibition rate test (kinase assay kit, colorimetric ELISA). The settings on record: concentration not given.
In experiment [2] the test system is Rat aortic ring. The experiment is described as follows: Rat Aortic Ring Assay. Type of experiment: cell-based. To be noted: for Rat Aortic Ring Assay (10 ug/ml), result in words: observed on the sixth day; for inhibition at 10 µg/mL: Rattus norvegicus, 10 ug/ml. The source says:
Rat Aortic Ring Assay • 1) 6 week old SD […] (Sprague Dawley) were selected for the experiments. Cleaned abdominal skin with 75% ethanol to disinfect, and then anesthetized the mice with ether, • 2) Carefully removed the abdominal aortas and transferred the aortas to normal saline. Excessive vascular tissues were carefully removed with scissors. • 3) The aortas were rinsed with normal saline until no blood stain remained. • 4) Sectioned the aortas into one millimeter depth arterial slices with ophthalmological scissors. • 5) Add 50 μL pre-thawed Matrigel to each well of the pre-cooled 96 well cell culture plates, and embedded the ring-shaped mouse aortas in collagen gel. • 6) Incubated for 60 minutes at 37° C. to solidificate the gel. • 7) Added DMEM culture solution containing 10% FBS, along with different concentrations of the selected compounds into the wells and cultured in the incubator. Every compound was repeated in no less than 3 wells. • 8) Replaced with the fresh medium and changed the medicine once on the third day. • 9) Took out the pates on the sixth day, and observed the vascular growth with Microscope (OLYMPUS, DP70, Japan) and took photographs(×100). Randomly chose 3 arterial rings to photograph and calculated the area covered by micro-vascular with Image Pro Plus software. The inhibition rate is calculated as:
[formula] • Evaluation criteria: ⋆inhibition rate[…]; ⋆⋆inhibition rate 60-90%; ⋆⋆⋆inhibition rate>90%.

Where [3] appears, read: compared with blank control, sixth day.

VEGFR-2, sequence (P35968 20-1356): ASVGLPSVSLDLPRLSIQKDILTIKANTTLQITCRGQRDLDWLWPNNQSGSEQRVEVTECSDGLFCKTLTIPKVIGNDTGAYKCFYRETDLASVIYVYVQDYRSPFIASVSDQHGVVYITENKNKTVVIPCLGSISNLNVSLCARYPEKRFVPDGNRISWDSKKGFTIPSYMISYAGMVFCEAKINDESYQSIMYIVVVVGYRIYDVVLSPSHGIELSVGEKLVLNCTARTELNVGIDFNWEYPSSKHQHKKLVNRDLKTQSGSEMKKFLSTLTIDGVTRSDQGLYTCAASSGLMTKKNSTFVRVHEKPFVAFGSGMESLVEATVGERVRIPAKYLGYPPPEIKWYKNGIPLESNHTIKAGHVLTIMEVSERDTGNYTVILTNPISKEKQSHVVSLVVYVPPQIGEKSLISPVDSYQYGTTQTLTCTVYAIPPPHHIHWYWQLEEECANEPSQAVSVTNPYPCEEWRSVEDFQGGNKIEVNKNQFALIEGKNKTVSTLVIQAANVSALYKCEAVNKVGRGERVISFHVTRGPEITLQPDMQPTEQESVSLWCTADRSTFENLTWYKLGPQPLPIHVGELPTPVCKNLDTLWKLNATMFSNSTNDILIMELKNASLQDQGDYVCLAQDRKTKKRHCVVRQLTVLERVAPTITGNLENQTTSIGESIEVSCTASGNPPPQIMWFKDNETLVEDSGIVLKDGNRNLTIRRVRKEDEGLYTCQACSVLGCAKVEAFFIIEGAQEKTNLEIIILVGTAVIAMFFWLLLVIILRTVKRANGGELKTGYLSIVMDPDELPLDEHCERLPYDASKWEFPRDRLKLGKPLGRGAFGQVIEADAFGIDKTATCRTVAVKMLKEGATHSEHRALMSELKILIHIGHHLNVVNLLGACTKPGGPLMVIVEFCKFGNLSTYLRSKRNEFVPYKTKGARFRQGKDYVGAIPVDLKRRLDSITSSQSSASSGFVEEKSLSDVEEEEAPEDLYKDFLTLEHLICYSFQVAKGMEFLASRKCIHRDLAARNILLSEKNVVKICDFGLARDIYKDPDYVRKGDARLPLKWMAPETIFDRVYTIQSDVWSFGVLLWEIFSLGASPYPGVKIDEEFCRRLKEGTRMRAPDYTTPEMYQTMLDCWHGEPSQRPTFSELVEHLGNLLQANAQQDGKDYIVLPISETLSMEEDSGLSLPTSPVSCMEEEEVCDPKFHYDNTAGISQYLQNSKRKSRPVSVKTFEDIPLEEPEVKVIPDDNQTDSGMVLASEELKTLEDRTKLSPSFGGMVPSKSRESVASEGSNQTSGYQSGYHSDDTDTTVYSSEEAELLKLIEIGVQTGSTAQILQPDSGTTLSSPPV

As for `Fc1ccc(Nc2nnnc3ccccc23)cc1Cl` [Example 1, 4-(3-chloro-4-fluoroanilino)-benzo[d][1,2,3]triazine], in experiment [1], the “Kinase inhibition rate (VEGFR-2)” value is on record as 3.47.
With `Fc1ccc(Nc2nnnc3ccccc23)cc1` [Example 2, 4-(4-fluoroanilino)-benzo[d][1,2,3]triazine], the “Kinase inhibition rate (VEGFR-2)” value in experiment [1] is reported as −22.99.
As to `Fc1cc(F)cc(Nc2nnnc3ccccc23)c1` [Example 5, 4-(3,5-difluoroanilino)-benzo[d][1,2,3]triazine], the “Kinase inhibition rate (VEGFR-2)” value in experiment [1] is recorded as −5.34.
Same read-out and setting: under `Fc1cc(Nc2nnnc3ccccc23)ccc1Br` [Example 8, 4-(3-fluoro-4-bromoanilino)-benzo[d][1,2,3]triazine] stands −6.95; under `Fc1ccc(Nc2nnnc3ccccc23)cc1C(F)(F)F` [Example 9, 4-(3-trifluoromethyl-4-fluoroanilino)-benzo[d][1,2,3]triazine], 1.60.
The same measure, in the same setting: under `Clc1cc(Cl)cc(Nc2nnnc3ccccc23)c1` [Example 10, 4-(3,5-dichloroanilino)-1,2,3-benzotriazine] stands −2.67; under `CCCCOc1cc2nnnc(Nc3ccccc3)c2cc1OC` [Example 11, 6-methoxy-7-butoxy-4-anilino-benzo[d][1,2,3]triazine], −4.27; under `CCCCOc1cc2nnnc(Nc3ccc(Br)c(F)c3)c2cc1OC` [Example 12, 6-methoxy-7-n-butoxy-4-(3-fluoro-4-bromoanilino)-benzo[d][1,2,3]triazine], 9.09.
On the same count and under the same terms, under `CCCCOc1cc2nnnc(Nc3cc(F)cc(F)c3)c2cc1OC` [Example 14, 6-methoxy-7-n-butoxy-4-(3,5-difluoroanilino)-benzo[d][1,2,3]triazine] stands −0.80; under `CCCCOc1cc2nnnc(Nc3ccc(Cl)cc3)c2cc1OC` [Example 16, 6-methoxy-7-n-butoxy-4-(4-chloroanilino)-benzo[d][1,2,3]triazine], −12.03.
Take `CCCCOc1cc2nnnc(Nc3cccc(C(F)(F)F)c3)c2cc1OC` [Example 17, 6-methoxy-7-n-butoxy-4-(3-trifluoromethylanilino)-benzo[d][1,2,3]triazine]: in experiment [2], the “Rat Aortic Ring Assay (10 ug/ml), result in words” value (shortened to “Rat Aortic Ring Assay … in words”) is reported as “No significant inhibition compared with the blank control”. In experiment [1], the “Kinase inhibition rate (VEGFR-2)” value is on record as −5.34.
On to `CCCCOc1cc2nnnc(Nc3ccc(C(F)(F)F)cc3)c2cc1OC` [Example 18, 6-methoxy-7-n-butoxy-4-(4-trifluoromethylanilino)-benzo[d][1,2,3]triazine], for which the “Rat Aortic Ring Assay … in words” value in experiment [2] is on record as “No significant inhibition”. Also, in experiment [1], the “Kinase inhibition rate (VEGFR-2)” value turned out to be 3.20.
Take `CCCCOc1cc2nnnc(Nc3ccc(F)cc3)c2cc1OC` [Example 26, 6-methoxy-7-n-butoxy-4-(4-fluoroanilino)-benzo[d][1,2,3]triazine]: in experiment [1], the “Kinase inhibition rate (VEGFR-2)” value was found to be 9.89.
`CCOc1cc2nnnc(Nc3ccccc3)c2cc1OC` [Example 28, 6-methoxy-7-ethoxy-4-anilino-benzo[d][1,2,3]triazine]: the inhibition at 10 µg/mL in experiment [2] (setting [3]) is around 40%. In addition, the “Kinase inhibition rate (VEGFR-2)” value in experiment [1] came out at 45.98.
With `CCOc1cc2nnnc(Nc3ccc(C(F)(F)F)cc3)c2cc1OC` [Example 35, 6-methoxy-7-ethoxy-4-(4-trifluoromethylanilino)-benzo[d][1,2,3]triazine], the inhibition at 10 µg/mL in experiment [2] (setting [3]) was around 40%.
Regarding `CCOc1cc2nnnc(Nc3ccc(C)cc3)c2cc1OC` [Example 43, 6-methoxy-7-ethoxy-4-(4-methylanilino)-benzo[d][1,2,3]triazine], the “Rat Aortic Ring Assay … in words” value in experiment [2] was “No significant inhibition”. Besides, the “Kinase inhibition rate (VEGFR-2)” value in experiment [1] amounted to 43.56.
Take `CCCCCOc1cc2nnnc(Nc3ccccc3)c2cc1OC` [Example 44, 6-methoxy-7-pentyloxy-4-anilino-benzo[d][1,2,3]triazine]: the “Kinase inhibition rate (VEGFR-2)” value in experiment [1] was −22.45.
Consider `CCCCCOc1cc2nnnc(Nc3cc(Cl)cc(Cl)c3)c2cc1OC` [Example 46, 6-methoxy-7-pentyloxy-4-(3,5-dichloroanilino)-benzo[d][1,2,3]triazine], for which the “Kinase inhibition rate (VEGFR-2)” value in experiment [1] is given as −0.53.
Take `CCCCCOc1cc2nnnc(Nc3cccc(OC(F)(F)F)c3)c2cc1OC` [Example 52, 6-methoxy-7-pentyloxy-4-(3-trifluoromethoxyanilino)-benzo[d][1,2,3]triazine]: the “Kinase inhibition rate (VEGFR-2)” value in experiment [1] was 2.13.
For `CCCCCOc1cc2nnnc(Nc3cccc(Cl)c3)c2cc1OC` [Example 54, 6-methoxy-7-pentyloxy-4-(3-chloroanilino)-benzo[d][1,2,3]triazine], the “Kinase inhibition rate (VEGFR-2)” value in experiment [1] came to 3.20.
Turning to `CCCCCOc1cc2nnnc(Nc3ccccc3F)c2cc1OC` [Example 57, 6-methoxy-7-pentyloxy-4-(2-fluoroanilino)-benzo[d][1,2,3]triazine], the “Kinase inhibition rate (VEGFR-2)” value in experiment [1] turned out to be 10.42.
In the case of `CCCCCOc1cc2nnnc(Nc3cccc(Br)c3)c2cc1OC` [Example 58, 6-methoxy-7-pentyloxy-4-(3-bromoanilino)-benzo[d][1,2,3]triazine], the “Kinase inhibition rate (VEGFR-2)” value in experiment [1] is recorded as −5.61.
`CCCCCOc1cc2nnnc(Nc3ccc(C)cc3)c2cc1OC` [Example 60, 6-methoxy-7-pentyloxy-4-(4-methylanilino)-benzo[d][1,2,3]triazine]: the “Kinase inhibition rate (VEGFR-2)” value in experiment [1] turned out to be 7.75.
With `COc1cc2c(Nc3cc(F)cc(F)c3)nnnc2cc1OCCCCl` [Example 64, 6-methoxy-7-chloropropoxy-4-(3,5-difluoroanilino)-benzo[d][1,2,3]triazine], the inhibition at 10 µg/mL in experiment [2] (setting [3]) is above 50%. Also, in experiment [1], the “Kinase inhibition rate (VEGFR-2)” value is reported as 10.73.
As to `COc1cc2c(Nc3cccc(Cl)c3)nnnc2cc1OCCCCl` [Example 71, 6-methoxy-7-chloropropoxy-4-(3-chloroanilino)-benzo[d][1,2,3]triazine], the “Kinase inhibition rate (VEGFR-2)” value in experiment [1] was found to be 21.14.
Turning to `COc1cc2c(Nc3ccc(F)c(Cl)c3)nnnc2cc1OCCCN1CCOCC1` [Example 94, 6-methoxy-7-(3-morpholinopropoxy)-4-(3-chloro-4-fluoroanilino)-benzo[d][1,2,3]triazine], the “Rat Aortic Ring Assay … in words” value in experiment [2] is “No significant inhibition”.
As for `COc1cc2c(Nc3ccc(F)c(Cl)c3)nnnc2cc1OCCCN1CCCCC1.Cl` [Example 95, 6-methoxy-7-(3-(piperidin-1-yl)-propoxy)-4-(3-chloro-4-fluoroanilino)-benzo[d][1,2,3]triazine hydrochloride], in experiment [2], the “Rat Aortic Ring Assay … in words” value was “Vascular growth was significantly inhibited, vascular ring was dead”.
As to `COc1cc2c(Nc3ccc(F)c(Cl)c3)nnnc2cc1OCCCN1CCN(C)CC1.Cl` [Example 96, 6-methoxy-7-(3-N-methylpiperazin-1-yl-propoxy)-4-(3-chloro-4-fluoroanilino)-benzo[d][1,2,3]triazin-4-amine hydrochloride], the “Rat Aortic Ring Assay (10 ug/ml), inhibition” value in experiment [2] (setting [3]) was “Vessel formation became less, about 30% inhibition”.

Broadly, the inhibition is the change of the read-out against control, counted positive when it falls. The low end stands for little suppression, the high end for strong suppression.
